Reference: US9834579B2, “Crystalline forms of s-acetyl glutathione, their preparations and uses in pharmaceutical and nutraceutical formulations” (Gnosis S.p.A., priority 2013, dated 2017)

What was measured:
[1] = accelerated stability test of solid forms at 50° C. for 6 months (European Pharmacopoeia); type: physicochemical; conditions: for GSH / GSSG / SAG / Unknown impurities (single) / Unknown impurities (total): % area
Experimental: The stability of the various solid forms was tested as described in the European Pharmacopoeia (EP), by conducting accelerated stability tests at 50° C. for 6 months.

[2] = dissolution rate in water; type: physicochemical; conditions: comparison of solid forms
[3] = powder density / apparent density; type: physicochemical; conditions: for Apparent density: product of the example after drying
[4] = heat and mechanical stress, conversion of one polymorph to the other; type: physicochemical; conditions: heat and mechanical stresses
[5] = flowability of the powders; type: physicochemical; conditions: comparison of crystalline forms
[6] = oral, seven healthy volunteers, doses of up to 3 g per dose; cited from earlier work
[7] = tested on: fibroblasts originating from individuals suffering from a genetic glutathione synthetase deficiency; conditions: addition to fibroblast cultures; cited from earlier work
[8] = compared with GSH; cited from earlier work
[9] = tested on: cell levels of GSH impoverished by viral infections; conditions: cells impoverished by viral infections, compared with GSH; cited from earlier work
[10] = tested on: human tumour cell lines; conditions: some human tumour cell lines in vitro; cited from earlier work

Row | Compound | SAG - assay value ([1]; 0 months) [%] | GSH ([1]; 0 months) [%] | GSSG ([1]; 0 months) [%] | SAG ([1]; 0 months) [%] | Unknown impurities (single) ([1]; 0 months) [%] | Unknown impurities (total) ([1]; 0 months) [%] | SAG - assay value ([1]; 1.5 months) [%] | GSH ([1]; 1.5 months) [%] | GSSG ([1]; 1.5 months) [%] | SAG ([1]; 1.5 months) [%] | Unknown impurities (single) ([1]; 1.5 months) [%] | Unknown impurities (total) ([1]; 1.5 months) [%] | SAG - assay value ([1]; 3 months) [%] | GSH ([1]; 3 months) [%] | GSSG ([1]; 3 months) [%] | SAG ([1]; 3 months) [%] | Unknown impurities (single) ([1]; 3 months) [%] | Unknown impurities (total) ([1]; 3 months) [%] | SAG - assay value ([1]; 4.5 months) [%] | GSH ([1]; 4.5 months) [%] | other results
1 | CC(=O)SC[C@H](NC(=O)CC[C@H](N)C(=O)O)C(=O)NCC(=O)O [Amorphous, S-acetyl glutathione] | 96.5 | 1.0 | 2.5 | 95.1 | 0.4 | 1.4 | 94.9 | 1.6 | 2.5 | 94.6 | 0.9 | 1.9 | 92.4 | 2.4 | 2.8 | 91.3 | 1.2 | 2.3 | 91.5 | 2.8 | GSSG ([1]; 4.5 months): 2.9%; SAG ([1]; 4.5 months): 90.4%; Unknown impurities (single) ([1]; 4.5 months): 1.3%; Unknown impurities (total) ([1]; 4.5 months): 2.7%; SAG - assay value ([1]; 6 months): 89.9%; GSH ([1]; 6 months): 2.5%; GSSG ([1]; 6 months): 3.9%; SAG ([1]; 6 months): 88.6%; Unknown impurities (single) ([1]; 6 months): 1.5%; Unknown impurities (total) ([1]; 6 months): 3.5%; stability of the solid form (comparison) ([1]; 6 months, data of Table 3): much less stable than the crystalline forms; dissolution rate ([2]; listed as amorphous form): dissolves more rapidly
2 | CC(=O)SC[C@H](NC(=O)CC[C@H](N)C(=O)O)C(=O)NCC(=O)O [Example 3, S-acetyl glutathione] |  |  |  |  |  |  |  |  |  |  |  |  |  |  |  |  |  |  |  |  | Apparent density [3]: 0.35 g/mL
3 | CC(=O)SC[C@H](NC(=O)CC[C@H](N)C(=O)O)C(=O)NCC(=O)O [Form A, S-acetyl glutathione] | 98.6 | 0.1 | 2.2 | 96.3 | 0.4 | 1.0 | 98.3 | 0.1 | 2.2 | 95.5 | 0.5 | 1.7 | 97.8 | 0.2 | 2.3 | 95.1 | 0.5 | 1.9 | 97.6 | 0.2 | GSSG ([1]; 4.5 months): 2.4%; SAG ([1]; 4.5 months): 94.7%; Unknown impurities (single) ([1]; 4.5 months): 0.7%; Unknown impurities (total) ([1]; 4.5 months): 2.0%; SAG - assay value ([1]; 6 months): 97.4%; GSH ([1]; 6 months): 0.3%; GSSG ([1]; 6 months): 2.4%; SAG ([1]; 6 months): 94.4%; Unknown impurities (single) ([1]; 6 months): 0.9%; Unknown impurities (total) ([1]; 6 months): 2.0%; conversion of one polymorph to the other [4]: not found; powder density [3]: 0.2 to 0.25 g/mL; Apparent density ([3]; listed as Example 1): 0.15 to 0.25 g/mL; flowability of the powder [5]: better flowability
4 | CC(=O)SC[C@H](NC(=O)CC[C@H](N)C(=O)O)C(=O)NCC(=O)O [Form B, S-acetyl glutathione] | 99.3 | 0.2 | 1.1 | 97.7 | 0.2 | 0.8 | 99.1 | 0.3 | 1.2 | 97.1 | 0.5 | 0.9 | 98.7 | 0.7 | 0.8 | 96.7 | 0.7 | 1.1 | 98.3 | 0.9 | GSSG ([1]; 4.5 months): 1.1%; SAG ([1]; 4.5 months): 96.0%; Unknown impurities (single) ([1]; 4.5 months): 0.7%; Unknown impurities (total) ([1]; 4.5 months): 1.3%; SAG - assay value ([1]; 6 months): 98.1%; GSH ([1]; 6 months): 1.0%; GSSG ([1]; 6 months): 0.9%; SAG ([1]; 6 months): 95.7%; Unknown impurities (single) ([1]; 6 months): 0.8%; Unknown impurities (total) ([1]; 6 months): 2.0%; conversion of one polymorph to the other [4]: not found; dissolution rate [2]: most rapid dissolution rate; powder density [3]: 0.4 g/mL; Apparent density ([3]; listed as Example 2): 0.25 to 0.40 g/mL
5 | N[C@@H](CCC(=O)N[C@@H](CS)C(=O)NCC(=O)O)C(=O)O [GSH, γ-L-glutamyl-L-cysteinylglycine] |  |  |  |  |  |  |  |  |  |  |  |  |  |  |  |  |  |  |  |  | increase in the blood levels of glutathione, cysteine and glutamate [6]: no significant increases
6 | CC(=O)SC[C@H](NC(=O)CC[C@H](N)C(=O)O)C(=O)NCC(=O)O [SAG, S-acetyl glutathione] |  |  |  |  |  |  |  |  |  |  |  |  |  |  |  |  |  |  |  |  | replenishment of the intracellular level of GSH [7]: able to replenish the intracellular level of GSH effectively; stability in the plasma [8]: more stable in the plasma; replenishing the cell levels of GSH [9]: more effective than GSH; induction of apoptosis (non-GSH-dependent activity) [10]: induces apoptosis
